Test results reported in patent publication US7030142B1, “Methods for the treatment of neuroleptic and related disorders using ziprasidone metabolites” (Sepracor Inc., priority 1999, dated 2006).
Where a name gives a salt, the structure may show the parent alone. One block for each compound: values may come before it.

Columns and labels:
[1] = ziprasidone administered orally; cited from earlier work
D2 dopamine receptors = D2 dopamine receptors (Homo sapiens, UniProt P14416); experiment: Competition radioreceptor assay, D2 dopamine receptors; conditions: 90 minute incubation; (+)-butaclamol (0.25 μM) defining nonspecific binding; read-out: KD of radioligand
Procedure: Competition radioreceptor assays are used to determine the affinity (IC50's) of the phenylaminotetralins and other reference ligands for D2 dopamine receptors. […] Jarvie, J. R. et al., Eur. J. Pharmacol., 144:163–171 (1987) and Kula, N. S. et al., Dev. Brain Res., 66:286–287 (1992). […] Test agents are evaluated by running, in duplicate, six or more concentrations that bracketed the IC50. Three replications are performed, and the resulting data are analyzed using the ALLFIT program.

5-HT1A = biological target: T1, 5-HT1A (Homo sapiens, UniProt P08908); conditions: Seeger et al. 1995; cited from earlier work
T1 sequence (P08908 1-422): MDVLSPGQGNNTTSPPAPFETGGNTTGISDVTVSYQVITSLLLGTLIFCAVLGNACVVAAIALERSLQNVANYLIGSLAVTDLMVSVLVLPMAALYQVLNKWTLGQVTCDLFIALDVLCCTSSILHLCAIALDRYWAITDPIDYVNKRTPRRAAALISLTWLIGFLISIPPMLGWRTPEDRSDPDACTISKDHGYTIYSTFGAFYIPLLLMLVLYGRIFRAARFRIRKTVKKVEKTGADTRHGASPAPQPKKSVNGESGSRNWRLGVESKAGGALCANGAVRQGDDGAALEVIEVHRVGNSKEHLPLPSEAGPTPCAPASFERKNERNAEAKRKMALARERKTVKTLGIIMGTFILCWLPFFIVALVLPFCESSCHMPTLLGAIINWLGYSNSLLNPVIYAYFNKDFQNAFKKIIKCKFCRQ

dopamine D2 receptor = dopamine D2 receptor (Homo sapiens, UniProt P14416); conditions: Seeger et al. 1995; cited from earlier work
5-HT1D = 5-HT1D (Homo sapiens, UniProt P28221); conditions: Seeger et al. 1995; cited from earlier work
5-HT2C = biological target: T2, 5-HT2C (Homo sapiens, UniProt P28335); conditions: Seeger et al. 1995; cited from earlier work
T2 sequence (P28335 33-458): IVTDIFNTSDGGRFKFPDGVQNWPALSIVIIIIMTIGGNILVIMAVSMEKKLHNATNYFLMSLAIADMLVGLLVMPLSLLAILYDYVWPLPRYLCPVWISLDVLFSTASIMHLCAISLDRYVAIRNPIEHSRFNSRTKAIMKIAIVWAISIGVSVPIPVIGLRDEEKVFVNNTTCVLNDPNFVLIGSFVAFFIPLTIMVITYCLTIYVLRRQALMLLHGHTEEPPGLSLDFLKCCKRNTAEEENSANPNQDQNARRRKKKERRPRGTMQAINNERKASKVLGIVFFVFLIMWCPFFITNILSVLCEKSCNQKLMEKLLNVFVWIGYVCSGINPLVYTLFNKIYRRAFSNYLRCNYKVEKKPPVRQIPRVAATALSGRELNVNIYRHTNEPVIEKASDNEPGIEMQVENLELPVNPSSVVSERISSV

5-HT2 receptor = conditions: Seeger et al. 1995; cited from earlier work

D2 dopamine receptors, sequence (P14416 whole entry): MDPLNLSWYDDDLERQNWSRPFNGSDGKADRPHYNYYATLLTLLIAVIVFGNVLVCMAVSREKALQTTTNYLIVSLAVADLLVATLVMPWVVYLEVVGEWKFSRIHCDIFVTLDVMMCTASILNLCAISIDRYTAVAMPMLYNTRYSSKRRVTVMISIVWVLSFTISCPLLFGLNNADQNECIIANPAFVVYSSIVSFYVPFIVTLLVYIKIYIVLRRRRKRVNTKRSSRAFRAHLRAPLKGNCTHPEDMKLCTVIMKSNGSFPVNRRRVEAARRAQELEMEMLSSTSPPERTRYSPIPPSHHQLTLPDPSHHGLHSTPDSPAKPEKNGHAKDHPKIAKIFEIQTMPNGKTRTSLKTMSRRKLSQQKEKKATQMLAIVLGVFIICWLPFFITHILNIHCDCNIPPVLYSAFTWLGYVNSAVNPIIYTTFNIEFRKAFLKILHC
dopamine D2 receptor, sequence (P14416 whole entry, species assumed): as the sequence (P14416 whole entry) above
5-HT1D, sequence (P28221 whole entry, species assumed): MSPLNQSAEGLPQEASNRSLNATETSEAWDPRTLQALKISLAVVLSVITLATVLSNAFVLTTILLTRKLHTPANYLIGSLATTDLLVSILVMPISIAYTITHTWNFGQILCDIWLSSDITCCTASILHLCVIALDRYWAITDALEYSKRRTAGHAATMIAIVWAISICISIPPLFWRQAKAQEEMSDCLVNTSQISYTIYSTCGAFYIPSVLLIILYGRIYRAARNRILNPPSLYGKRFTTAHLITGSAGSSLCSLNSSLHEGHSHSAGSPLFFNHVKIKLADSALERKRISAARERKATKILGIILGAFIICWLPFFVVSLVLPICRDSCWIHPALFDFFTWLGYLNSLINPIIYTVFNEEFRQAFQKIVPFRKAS

Structure (SMILES): O=C1Cc2cc(CCN3CCN(C4=NS(=O)(=O)c5ccccc54)CC3)c(Cl)cc2N1 [ZIP-SO2, ziprasidone sulfone]
share of ziprasidone metabolites found in human urine [1]: less than 3%

Structure (SMILES): O=C1Cc2cc(CCN3CCN(c4n[s+]([O-])c5ccccc45)CC3)c(Cl)cc2N1 (centres unmarked) [ZIP-SO, ziprasidone sulfoxide]
share of ziprasidone metabolites found in human urine [1]: less than 10%

Kd (D2 dopamine receptors): 0.34 nM
Structure (SMILES): CN1CCc2cc(Cl)c(O)cc2C(c2ccccc2)C1 (centres unmarked) [[^3H]SCH23390]

Structure (SMILES): O=C1Cc2cc(CCN3CCN(c4nsc5ccccc45)CC3)c(Cl)cc2N1 [ziprasidone, (5-[2-{4-(1,2-benzisothiazol-3-yl)piperizin-1-yl}ethyl]-6-chlorooxindole)hydrochloride hydrate]
affinity for 5-HT1A receptor subtype (5-HT1A): high affinity
dopamine D2 receptor antagonist (dopamine D2 receptor): highly potent and selective
affinity for 5-HT1D receptor subtype (5-HT1D): high affinity
affinity for 5-HT2C receptor subtype (5-HT2C): high affinity
5-HT2 receptor antagonist (5-HT2 receptor): highly potent and selective
